Test results as given in patent publication US20100178293A1 (priority 2007, published 2010).

Assays:
[1] = tested on: mouse model for Alzheimer's disease; conditions: literature, Lim et al. 2000; cited from earlier work
Tg2576 Tg+ mice = assay: Tg2576 mouse model of Alzheimer's disease (Example 2); type: in vivo; conditions: 100 μg i.v. weekly for 6 months
Method: Ten-month-old male and female Tg2576 Tg+ and Tg− are used (n=10 animals/group). Tg+ mice are treated with Campath 100 μg i.v. weekly for 6 months or placebo (saline), respectively before being sacrificed. TG− mice served as controls Animals are perfused before brain dissection with 0.9% normal saline followed by HEPES buffer, pH 7.2, containing protease inhibitors. […] Tg+ mice fed chow containing ibuprofen for 6 months serve as positive treatment control.

RML prion = type: in vivo, mice; conditions: Example 1; RML prion i.p.; Campath 100 μg i.v.

Compound | plaque pathology and inflammation in a mouse model for Alzheimer's disease [1] | activity in a mouse model of Alzheimer's disease (Tg2576 Tg+ mice) | inhibition of the spread of prions in an animal model (RML prion)
CC(C)Cc1ccc(C(C)C(=O)O)cc1 (stereo not drawn) [Ibuprofen] | suppresses plaque pathology and inflammation |  | 
alemtuzumab [Campath] |  | active | can inhibit the spread of prions
